A short description of data set [1]: Retrospective cohort study: skeletal muscle area (SMA) at L3 from serial abdominal CT scans. The data set is classed as in vivo, human. The conditions noted are these: for Follow-up skeletal muscle area: Median (IQR) at second CT scan, rifaximin N = 63 (with lactulose), lactulose alone N = 79; for median change in SMA: between first and second abdominal CT scan (3-9 months apart), patients with cirrhosis and HE, rifaximin 550 mg twice daily orally with lactulose vs lactulose monotherapy. The text has this: (§1) This study is a single-centre retrospective cohort study of patients treated with lactulose or rifaximin with lactulose, under the care of the liver transplant service in Melbourne, Australia, between 2009 and 2022. The primary outcome measure was a change in muscle mass over time between the rifaximin versus non-rifaximin treated cohort. Secondary outcomes included. Clostridium difficile infection and mortality.
(§2) All adult patients (age >18 years) with cirrhosis and documented clinically apparent hepatic encephalopathy (HE) known to the Victorian liver transplant service were considered for analysis. Inclusion criteria required patients to have had serial abdominal CT scans at least 3 months and at most 9 months apart during their time on the liver transplant waitlist to allow for comparison of muscle mass over time. Rifaximin became widely available as a treatment of HE on the Pharmaceutical Benefits Scheme in Australia in January 2014. Therefore, patients on lactulose monotherapy (January 2009 to December 2013) were compared to those receiving rifaximin with lactulose (January 2014 to July 2022). Patients were orally administered 550 mg of rifaximin (alpha) twice daily. Lactulose treatment for HE was under standard conditions, i.e. lactulose administration in syrup form at a dose of 15 to 30 mL two to four times a day to aim for two semisoft stools per day. Patients otherwise received standard of care management of cirrhosis including nutritional advice from an experienced liver dietitian.
Muscle mass data was calculated from CT scans performed at two time-points in the patient journey to determine progress and change of outcomes. The first time-point for data collection, including for demographics and blood parameters, was time of first CT. The second time-point for data collection was collected between three to nine months following the first time point when the follow up CT was performed.
SMA was measured using the cross-sectional area of the abdominal muscles at the third lumbar vertebrae (L3) using CoreSlicer (^©2018), a web-based program for accurate measurement of body composition, verified for this purpose (Mullie & Afilalo "CoreSlicer: a web toolkit for analytic morphomics" BMC Med. Imaging (2019), 19(1): 15).
Statistical analysis was performed using R version 4.1.1. Subgroups were compared by χ^2 test for categorical variables and Student's t-test or Wilcoxon rank sum test for parametric and non-parametric continuous variables, respectively. Linear regression models (analysis of covariance) were used to assess the impact of clinical variables on muscle endpoints. […]
Averages were expressed as mean ± standard deviation for normally distributed variables, and as medians ± IQR for non-normally distributed variables.

Data set [2] in a line: Retrospective cohort study: clinical outcomes (transplant outcome, mortality, Clostridium difficile infection). In kind it is in vivo, human. The conditions noted are these: for Transplant outcome: Died on list: died awaiting transplantation; for episodes of Clostridium difficile infection: during study follow-up; for Transplant outcome: Delisted / Transplant outcome: Rejected / Transplant outcome: Transplanted: liver transplant waitlist patients with cirrhosis and HE; for median time to death from listing: patients who died awaiting transplant; for Median time-to-transplant: transplanted patients.
Source text: as §1, §2
Included data comprised baseline demographics (age, gender, aetiology of liver disease, body mass index (BMI)); disease assessment at workup (Sodium Model of End-Stage Liver Disease (NaMELD)), Child-Pugh-Turcotte (CTP) score; sarcopenia assessment (skeletal muscle area (SMA, cm^2)) from single slice CT scan, sepsis (hospitalisation data for infective complications, episodes of spontaneous bacterial peritonitis); rifaximin complications (Clostridium difficile infections); and mortality and transplantation outcome data.
Patients were followed up until: end outcomes occurred; delisting from service; rejected prior to formal transplant workup; death prior to transplant; or liver transplantation.

For `CO[C@H]1/C=C/O[C@@]2(C)Oc3c(C)c(O)c4c(O)c(c5c(nc6cc(C)ccn65)c4c3C2=O)NC(=O)/C(C)=C\C=C\[C@H](C)[C@H](O)[C@@H](C)[C@@H](O)[C@@H](C)[C@H](OC(C)=O)[C@@H]1C` [Rifaximin, 4-deoxy-4'-methylpyrido[1',2'-1,2]imidazo-[5,4-c] rifamycin SV], in data set [1], the “Follow-up skeletal muscle area” value was 162 (134, 190) cm^2 and the “median change in SMA” value is recorded as “+0.74 cm^2”. Also, in data set [2], the “Transplant outcome: Died on list” value is given as 2 (3.4%) n (%), the “episodes of Clostridium difficile infection” value is reported as “one”, the “Transplant outcome: Delisted” value is reported as 4 (6.9%) n (%) and the “Transplant outcome: Rejected” value is on record as 1 (1.7%) n (%). In data set [2], the “Transplant outcome: Transplanted” value is 51 (88%) n (%), the “median time to death from listing” value was determined as 265.5 days and the Median time-to-transplant is on record as 353 days.
`OC[C@H]1O[C@@H](O[C@@H]2[C@@H](CO)OC(O)(CO)[C@H]2O)[C@H](O)[C@@H](O)[C@H]1O` (mixture of isomers) [Lactulose alone, Lactulose]: in data set [1], the “Follow-up skeletal muscle area” value is 159 (137, 174) cm^2 and the “median change in SMA” value is on record as -6.9 cm^2. Also, in data set [2], the “Transplant outcome: Died on list” value was 5 (6.5%) n (%), the “episodes of Clostridium difficile infection” value was “none”, the “Transplant outcome: Delisted” value is reported as 15 (19%) n (%) and the “Transplant outcome: Rejected” value is 0 (0%) n (%). Besides, in data set [2], the “Transplant outcome: Transplanted” value was 57 (74%) n (%), the “median time to death from listing” value was found to be 282 days and the Median time-to-transplant was determined as 312.5 days. In data set [2] (listed as lactulose), the “Transplant outcome: Died on list” value is 5 (6.5 %) n (%).

Source of the values: patent EP4613269A1, “RIFAXIMIN FOR USE IN TREATING SARCOPENIA IN PATIENTS WITH LIVER DISEASE” (priority 2024, dated 2025).
